Values quoted from earlier work, collected in patent US6733789B1 (Biovail Laboratories, Inc., priority 1999, dated 2004).

## CC(C)NCC(O)COc1ccc(COCCOC(C)C)cc1 (stereo not drawn) [bisoprolol]
After a 10 mg dose, oral
  peak plasma concentration: 40 ng/mL
Concomitant food intake or fasting
  effect of food on peak plasma concentrations: appear not to be affected by concomitant food intake or fasting
Dose range 2.5-100 mg
  dependence of pharmacokinetic properties on age or dose: not dependent on age or dose
In vivo
  excreted unchanged in the urine: About 50%
  mean plasma half life: 10 to 12 h
Oral administration
  pre-systemic metabolism: below 10%
  time to peak plasma concentrations: three
Spontaneously mentioned by patients treated with bisoprolol
  adverse effects: Dizziness, headache and tiredness are the most frequent adverse effects
Subsequent elimination of inactive metabolites via the kidneys
  biotransformed in the liver: 50%
